Results reported in US20140249139A1, “Quinazoline Derivatives” (NOVARTIS AG, priority 2011, published 2014).

Key:
murine B cells = assay: Murine B cell activation: CD86 expression on CD19 positive B cells after anti-IgM stimulation; assay type: cell-based; settings: Balb/c mouse splenocytes, anti-IgM 30 μg/ml, 24 hours, read-out: mCD86/ IC50 CD86
Method: PI3Kδ has been recognized to modulate B cell function when cells are stimulated through the B cell receptor (BCR) (Okkenhaug et al. Science 297:1031 (2002). For assessing the inhibitory property of compounds on B cell activation, the upregulation of activation markers CD86 and CD69 on murine B cells derived from mouse spleen […] is measured after stimulation with anti-IgM. CD69 is a well known activation marker for B and T cells (Sancho et al. Trends Immunol. 26:136 (2005). CD86 (also known as B7-2) is primarily expressed on antigen-presenting cells, including B cells. Resting B cells express CD86 at low levels, but upregulate it following stimulation of e.g. the BCR or IL-4 receptor. CD86 on a B cell interacts with CD28 on T cells. This interaction is required for optimal T cell activation and for the generation of an optimal IgG1 response (Carreno et al. Annu Rev Immunol. 20:29 (2002)).
Spleens from Balb/c mice were collected, splenocytes were isolated and washed twice with RPMI containing 10% foetal bovine serum (FBS), 10 mM HEPES, 100 Units/ml penicilline/streptomycine. RPMI supplemented in this way is subsequently referred to as medium. The cells were adjusted to 2.5×10^6 cells/ml in medium and 200 μl cell suspension ([…]) were added to the appropriate wells of 96 well plates.
Then the cells were stimulated by adding 50 μl anti-IgM mAb in medium (final concentration: 30 μg/ml). After incubation for 24 hours at 37° C., the cells were stained with the following antibody cocktails: anti-mouse CD86-FITC, anti-mouse CD69-PerCP-Cy5.5, anti-mouse CD19-PerCP for the assessment of B cells, and anti-mouse CD3-FITC, anti-mouse CD69-PE for the assessment of T cells (2 μl of each antibody/well). After one hour at room temperature (RT) in the dark the cells were transferred to 96 Deepwell plates. The cells were washed once with 1 ml PBS containing 2% FBS and after re-suspension in 200 μl the samples were analyzed on a FACS Calibur flow cytometer. Lymphocytes were gated in the FSC/SSC dot plot according to size and granularity and further analyzed for expression of CD19, CD3 and activation markers (CD86, CD69). Data were calculated from dot blots as percentage of cells positively stained for activation markers within the CD19+ or CD3+ population using BD CellQest Software.
For assessing the inhibitory property of compounds, compounds were first dissolved and diluted in DMSO followed by a 1:50 dilution in medium. Splenocytes from Balb/c mice were isolated, re-suspended and transfered to 96 well plates as described above (200 μl/well). The diluted compounds or solvent were added to the plates (25 μl) and incubated at 37° C. for 1 hour. Then the cultures were stimulated with 25 μl anti-IgM mAb/well (final concentration 30 μg/ml) for 24 hours at 37° C. and stained with anti-mouse CD86-FITC and anti-mouse CD19-PerCP (2 μl of each antibody/well). CD86 expression on CD19 positive B cells was quantified by flow cytometry as described above.

PI3K alpha = target: T1, PI3K alpha (Homo sapiens, UniProt P42336); assay: Enzymatic PI3K alpha isoform inhibition (lipid kinase activity, Kinase-Glo); assay type: biochemical; settings: enzymatic assay
T1 construct: for the p110-a subunit (with a deletion of the first 20 amino acids) are generated; His tag (C); made in house; host or cells: baculovirus BV1075; Tn5 (Trichoplusia ni) or TiniPro insect cells
Method: (§1) The components of the assay are added per well as follows:
(§2) IC50 is determined by a four parameter curve fitting routine that comes along with “excel fit”.
(§3) Yet alternatively, for an ATP depletion assay, compounds of the formula I to be tested are dissolved in DMSO and directly distributed into a white 384-well plate at 0.5 μl per well. To start the reaction, 10 μl of 10 nM PI3 kinase and 5 μg/ml 1-alpha-phosphatidylinositol (PI) are added into each well followed by 10 μl of 2 μM ATP. The reaction is performed until approx 50% of the ATP is depleted, and then stopped by the addition of 20 μl of Kinase-Glo solution (Promega Corp., Madison, Wis., USA). The stopped reaction is incubated for 5 minutes and the remaining ATP is then detected via luminescence. IC50 values are then determined.

PI3K delta = target: T2, PI3K delta (Homo sapiens, UniProt O00329); assay: Enzymatic PI3K delta isoform inhibition (lipid kinase activity, Kinase-Glo); assay type: biochemical; settings: enzymatic assay
T2 construct: for the full-length p110-d subunit are generated and fused by overlapping PCR; His tag (C); made in house; host or cells: baculovirus BV1060; Tn5 (Trichoplusia ni) or TiniPro insect cells
Method: as §1, §2, §3

T1 sequence (P42336 with tags, fused parts or gaps limits assumed, species assumed): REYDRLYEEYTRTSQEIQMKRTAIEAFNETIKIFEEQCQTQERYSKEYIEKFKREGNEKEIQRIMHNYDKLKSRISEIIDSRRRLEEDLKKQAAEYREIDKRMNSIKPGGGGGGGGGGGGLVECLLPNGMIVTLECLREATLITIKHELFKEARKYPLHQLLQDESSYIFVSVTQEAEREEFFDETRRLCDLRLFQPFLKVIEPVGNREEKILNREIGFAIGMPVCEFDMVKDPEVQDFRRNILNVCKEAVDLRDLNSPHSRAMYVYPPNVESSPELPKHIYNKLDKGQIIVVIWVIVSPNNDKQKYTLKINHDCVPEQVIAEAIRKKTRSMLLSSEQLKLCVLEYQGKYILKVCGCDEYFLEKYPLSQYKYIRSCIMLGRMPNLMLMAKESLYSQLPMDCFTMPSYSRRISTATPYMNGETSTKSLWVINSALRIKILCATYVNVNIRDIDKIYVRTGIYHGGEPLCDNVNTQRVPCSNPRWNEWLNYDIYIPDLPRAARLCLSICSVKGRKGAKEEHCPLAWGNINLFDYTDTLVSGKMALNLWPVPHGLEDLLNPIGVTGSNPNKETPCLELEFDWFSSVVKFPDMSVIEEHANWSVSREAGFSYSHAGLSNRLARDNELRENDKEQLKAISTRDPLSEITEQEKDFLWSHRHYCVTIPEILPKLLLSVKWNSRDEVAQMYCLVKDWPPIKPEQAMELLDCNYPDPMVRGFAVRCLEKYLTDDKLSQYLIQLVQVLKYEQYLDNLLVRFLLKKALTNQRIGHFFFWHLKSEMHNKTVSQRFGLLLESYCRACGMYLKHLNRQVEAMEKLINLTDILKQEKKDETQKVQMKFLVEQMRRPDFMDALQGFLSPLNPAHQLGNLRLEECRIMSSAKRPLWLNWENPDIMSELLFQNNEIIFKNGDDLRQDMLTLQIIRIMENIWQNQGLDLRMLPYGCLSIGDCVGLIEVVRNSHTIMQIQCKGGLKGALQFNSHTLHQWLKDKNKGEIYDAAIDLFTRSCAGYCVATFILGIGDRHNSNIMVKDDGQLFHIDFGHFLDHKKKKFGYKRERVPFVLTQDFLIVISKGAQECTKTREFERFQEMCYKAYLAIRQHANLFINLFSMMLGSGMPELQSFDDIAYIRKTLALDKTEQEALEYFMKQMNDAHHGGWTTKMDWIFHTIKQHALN
T2 sequence (O00329 with tags, fused parts or gaps limits assumed, species assumed): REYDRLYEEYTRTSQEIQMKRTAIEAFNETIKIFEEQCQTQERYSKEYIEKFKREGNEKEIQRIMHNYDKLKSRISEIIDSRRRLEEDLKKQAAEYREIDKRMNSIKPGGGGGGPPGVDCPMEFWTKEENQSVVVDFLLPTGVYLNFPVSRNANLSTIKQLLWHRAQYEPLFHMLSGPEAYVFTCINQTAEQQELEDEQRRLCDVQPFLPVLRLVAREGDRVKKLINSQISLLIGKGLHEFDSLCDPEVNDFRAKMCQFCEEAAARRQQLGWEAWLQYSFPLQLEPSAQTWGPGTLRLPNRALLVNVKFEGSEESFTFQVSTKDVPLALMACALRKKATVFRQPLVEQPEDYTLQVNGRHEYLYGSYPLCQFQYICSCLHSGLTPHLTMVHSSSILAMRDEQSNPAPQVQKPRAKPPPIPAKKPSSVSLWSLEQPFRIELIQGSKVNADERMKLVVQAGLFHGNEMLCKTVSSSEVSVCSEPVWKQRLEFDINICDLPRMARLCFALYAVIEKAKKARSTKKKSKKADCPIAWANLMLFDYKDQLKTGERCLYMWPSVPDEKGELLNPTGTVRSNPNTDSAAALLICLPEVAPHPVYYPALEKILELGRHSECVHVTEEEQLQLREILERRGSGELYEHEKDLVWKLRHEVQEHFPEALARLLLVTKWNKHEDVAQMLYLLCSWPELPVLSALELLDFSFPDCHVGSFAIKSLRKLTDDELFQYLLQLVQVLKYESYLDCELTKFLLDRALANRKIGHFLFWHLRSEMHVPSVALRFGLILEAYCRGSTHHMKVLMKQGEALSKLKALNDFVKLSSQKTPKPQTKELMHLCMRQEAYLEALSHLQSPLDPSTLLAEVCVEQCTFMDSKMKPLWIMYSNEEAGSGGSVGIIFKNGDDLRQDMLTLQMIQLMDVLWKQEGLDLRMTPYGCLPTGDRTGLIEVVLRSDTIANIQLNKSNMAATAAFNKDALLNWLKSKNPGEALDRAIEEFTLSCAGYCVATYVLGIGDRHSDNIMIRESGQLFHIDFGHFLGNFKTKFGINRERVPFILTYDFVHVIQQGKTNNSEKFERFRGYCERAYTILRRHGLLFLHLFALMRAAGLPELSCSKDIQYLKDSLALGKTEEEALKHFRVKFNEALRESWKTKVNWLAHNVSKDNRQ

| Compound | IC50 (murine B cells) | IC50 (PI3K alpha) | IC50 (PI3K delta) |
| --- | --- | --- | --- |
| COc1ccc(-c2ccc3ncnc(-c4cccc(C(=O)N5CCN(C(C)=O)CC5)c4)c3c2)cn1 [Example 12] | 107 nM |  |  |
| COc1ccc(-c2ccc3ncnc(-c4cc(C(=O)N5CCN(C(C)=O)CC5)cc(C(F)(F)F)c4)c3c2)cn1 [Example 101, 1-(4-{3-[6-(6-Methoxy-pyridin-3-yl)-quinazolin-4-yl]-5-trifluoromethyl-benzoyl}-piperazin-1-yl)-ethanone] |  | 1270 nM | 16 nM |
| COc1ncc(-c2ccc3ncnc(-c4ccc(C)c(C(=O)N5CCN(C(C)=O)CC5)c4)c3c2)cn1 [Example 102, 1-(4-{5-[6-(2-Methoxy-pyrimidin-5-yl)-quinazolin-4-yl]-2-methyl-benzoyl}-piperazin-1-yl)-ethanone] |  | 770 nM | 11 nM |
| COc1ncc(-c2ccc3ncnc(-c4cc(C(=O)N5CCN(C(C)=O)CC5)cc(C(F)(F)F)c4)c3c2)cc1C#N [Example 103, 5-{4-[3-(4-Acetyl-piperazine-1-carbonyl)-5-trifluoromethyl-phenyl]-quinazolin-6-yl}-2-methoxy-nicotinonitrile] |  | 2120 nM | 8 nM |
| COc1ncc(-c2ccc3ncnc(-c4cc(C(=O)N5CCN(C(C)=O)CC5)cc(C(F)(F)F)c4)c3c2)cn1 [Example 104, 1-(4-{3-[6-(2-Methoxy-pyrimidin-5-yl)-quinazolin-4-yl]-5-trifluoromethyl-benzoyl}-piperazin-1-yl)-ethanone] |  | 3290 nM | 38 nM |
| COc1cc(C(=O)N2CCN(C(C)=O)CC2)cc(-c2ncnc3ccc(-c4cnc(OC)c(C#N)c4)cc23)c1 [Example 105, 5-{4-[3-(4-Acetyl-piperazine-1-carbonyl)-5-methoxy-phenyl]-quinazolin-6-yl}-2-methoxy-nicotinonitrile] |  | 720 nM | 7 nM |
| COc1ncc(-c2ccc3ncnc(-c4cc(F)cc(C(=O)N5CCN(C(C)=O)CC5)c4)c3c2)cn1 [Example 111, 1-(4-{3-Fluoro-5-[6-(2-methoxy-pyrimidin-5-yl)-quinazolin-4-yl]-benzoyl}-piperazin-1-yl)-ethanone] |  | 1360 nM | 10 nM |
| COc1ncc(-c2ccc3ncnc(-c4ccnc(C(=O)N5CCN(C(C)=O)CC5)c4)c3c2)cn1 [Example 112, 1-(4-{4-[6-(2-Methoxy-pyrimidin-5-yl)-quinazolin-4-yl]-pyridine-2-carbonyl}-piperazin-1-yl)-ethanone] |  | 2320 nM | 49 nM |
| COc1ncc(-c2ccc3ncnc(-c4ccnc(C(=O)N5CCN(C(C)=O)CC5)c4)c3c2)cc1C#N [Example 113, 5-{4-[2-(4-Acetyl-piperazine-1-carbonyl)-pyridin-4-yl]-quinazolin-6-yl}-2-methoxy-nicotinonitrile] |  | 979 nM | 18 nM |
| COc1ccc(-c2ccc3ncnc(-c4ccc(C)c(C(=O)N5CCN(C)CC5)c4)c3c2)cn1 [Example 115, {5-[6-(6-Methoxy-pyridin-3-yl)-quinazolin-4-yl]-2-methyl-phenyl}-(4-methyl-piperazin-1-yl)-methanone] |  | 888 nM | 42.5 nM |

More lines, in order of falling IC50 (PI3K alpha), values ahead:

| IC50 (murine B cells) | IC50 (PI3K alpha) | IC50 (PI3K delta) | Compound |
| --- | --- | --- | --- |
|  | 716 nM | 5 nM | COc1ccc(-c2ccc3ncnc(-c4cc(Cl)cc(C(=O)N5CCN(C(C)=O)CC5)c4)c3c2)cn1 [Example 107, 1-(4-{3-Chloro-5-[6-(6-methoxy-pyridin-3-yl)-quinazolin-4-yl]-benzoyl}-piperazin-1-yl)-ethanone] |
|  | 440 nM | 5 nM | COc1cc(C(=O)N2CCN(C(C)=O)CC2)cc(-c2ncnc3ccc(-c4ccc(OC)nc4)cc23)c1 [Example 106, 1-(4-{3-Methoxy-5-[6-(6-methoxy-pyridin-3-yl)-quinazolin-4-yl]-benzoyl}-piperazin-1-yl)-ethanone] |
|  | 435 nM | 14 nM | COc1ncc(-c2ccc3ncnc(-c4cc(C)cc(C(=O)N5CCN(C(C)=O)CC5)c4)c3c2)cc1C#N [Example 109, 5-{4-[3-(4-Acetyl-piperazine-1-carbonyl)-5-methyl-phenyl]-quinazolin-6-yl}-2-methoxy-nicotinonitrile] |
|  | 306 nM | 14 nM | COc1ccc(-c2ccc3ncnc(-c4ccc(C)c(C(=O)N5CCN(C(C)C)CC5)c4)c3c2)cn1 [Example 116, (4-Isopropyl-piperazin-1-yl)-{5-[6-(6-methoxy-pyridin-3-yl)-quinazolin-4-yl]-2-methyl-phenyl}-methanone] |
|  | 158 nM | 7 nM | COc1ccc(-c2ccc3ncnc(-c4cc(C)cc(C(=O)N5CCN(C(C)=O)CC5)c4)c3c2)cn1 [Example 108, 1-(4-{3-[6-(6-Methoxy-pyridin-3-yl)-quinazolin-4-yl]-5-methyl-benzoyl}-piperazin-1-yl)-ethanone] |
|  | 71 nM | 3 nM | COc1ncc(-c2ccc3ncnc(-c4ccnc(C(=O)N5CCN(C(C)=O)CC5)c4)c3c2)cc1C(F)(F)F [Example 114, 1-(4-{4-[6-(6-Methoxy-5-trifluoromethyl-pyridin-3-yl)-quinazolin-4-yl]-pyridine-2-carbonyl}-piperazin-1-yl)-ethanone] |
